Residue numbers refer to the chain shown, from its start. Where two headings read alike, the source gives them in different places. Blank lines part the entries; values can stand above or below the compound they belong to. Where a SMILES comes first, the peptide text is derived from it. Bridges are numbered along the chain shown (N, C = ends).
Assays:
[1] = target: T1, hCTR F356A (Homo sapiens, UniProt P30988, F356A); assay: IP1 accumulation; format: cell-based; details: read-out: Emax (% WT), SEM
T1 construct: c-Myc (N); expressed in transfected cells
T1 sequence (P30988 25-474 F356A): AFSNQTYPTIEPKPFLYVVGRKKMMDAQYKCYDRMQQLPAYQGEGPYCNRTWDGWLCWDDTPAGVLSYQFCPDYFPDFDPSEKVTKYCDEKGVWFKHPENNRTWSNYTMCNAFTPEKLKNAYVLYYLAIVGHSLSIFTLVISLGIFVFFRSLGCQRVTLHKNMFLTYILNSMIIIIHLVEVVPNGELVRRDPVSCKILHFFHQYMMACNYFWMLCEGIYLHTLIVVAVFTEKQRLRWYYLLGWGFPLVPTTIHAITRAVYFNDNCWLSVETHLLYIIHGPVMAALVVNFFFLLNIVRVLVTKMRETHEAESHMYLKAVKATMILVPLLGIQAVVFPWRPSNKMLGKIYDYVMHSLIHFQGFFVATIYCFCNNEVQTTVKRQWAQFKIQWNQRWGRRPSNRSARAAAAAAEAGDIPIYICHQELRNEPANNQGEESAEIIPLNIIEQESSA
Summary of the method: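 Cells bearing the mutant calcitonin receptor were plated overnight, then stimulated with increasing ligand concentrations for 60 min in the presence of LiCl. Endogenous IP1 was read by HTRF after lysis.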

[2] = target: T2, hCTR Y284A (Homo sapiens, UniProt P30988, Y284A); assay: Heterologous whole cell competition binding; details: heterologous competition of 125I-sCT(8-32), whole cells, mean ± S.E.M., SEM
T2 construct: expressed in transfected cells
T2 sequence (P30988 25-474 Y284A): T1 sequence (P30988 25-474 F356A) with Y260A, A332F
Description: (§1) Following overnight incubation non-bound ligand was removed and radioactivity was determined using a gamma counter.
(§2) Data were corrected for radioligand occupancy using the Cheng-Prusoff equation in Prism; as such data are reported as pKi. Emax and EC50 were estimated from concentration-response curves using with a 3-parameter logistic equation in Prism (v7). These values are a composite of functional affinity, efficacy and stimulus response coupling. […] Significance was accepted at P < 0.05.

[3] = target: T3, hCTR Y299A (Homo sapiens, UniProt P30988, Y299A); assay: Heterologous whole cell competition binding; details: heterologous competition of 125I-sCT(8-32), whole cells, mean ± S.E.M., SEM
T3 construct: c-Myc (N); expressed in transfected cells
T3 sequence (P30988 25-474 Y299A): T1 sequence (P30988 25-474 F356A) with Y275A, A332F
Description: as §1, §2

[4] = target: T4, hCTR D287A (Homo sapiens, UniProt P30988, D287A); assay: IP1 accumulation; format: cell-based; details: mean ± S.E.M.
T4 construct: c-Myc (N); expressed in transfected cells
T4 sequence (P30988 25-474 D287A): T1 sequence (P30988 25-474 F356A) with D263A, A332F
Description: Cells (2.5 × 10^4 cells/well) were plated into 96 well trays and cultured overnight. Cells were stimulated with increasing concentration of ligands for 60 min in the presence of LiCl. Samples were lysed and endogenous IP1 was measured using an IP-One HTRF® assay kit (CisBio) as specified by the manufacturer. Data were normalized to the maximal response elicited by 100 μM of ATP.
IC50 and Bmax values were estimated from competitive inhibition of ^125I-sCT(8-32) binding using a 3-parameter logistic equation (log(inhibitor versus response)) in Prism (v7; Graphpad). Data were corrected for radioligand occupancy using the Cheng-Prusoff equation in Prism; as such data are reported as pKi. Emax and EC50 were estimated from concentration-response curves using with a 3-parameter logistic equation in Prism (v7). These values are a composite of functional affinity, efficacy and stimulus response coupling. […] Derived τ values were normalized to experimentally determined levels of cell surface expression to provide a measure of efficacy (τc) that is independent of affinity and altered cell surface receptor expression. pKi, pKA and log τc values for mutant receptors were statistically compared to those of the WT receptor using a one-way analysis of variance (ANOVA) and Dunnett’s post-test. […]

Compound: CC[C@H](C)[C@H](NC(=O)[C@H](C)NC(=O)[C@@H](NC(=O)[C@H](CCC(N)=O)NC(=O)[C@@H]1CCCN1C(=O)[C@H](Cc1ccccc1)NC(=O)[C@@H](NC(=O)[C@H](Cc1c[nH]cn1)NC(=O)[C@H](Cc1ccccc1)NC(=O)[C@H](CCCCN)NC(=O)[C@H](CC(N)=O)NC(=O)[C@H](Cc1ccccc1)NC(=O)[C@H](CC(=O)O)NC(=O)[C@H](CCC(N)=O)NC(=O)[C@@H](NC(=O)[C@H](Cc1ccc(O)cc1)NC(=O)[C@@H](NC(=O)CNC(=O)[C@H](CC(C)C)NC(=O)[C@H](CCSC)NC(=O)[C@@H]1CSSC[C@H](N)C(=O)NCC(=O)N[C@@H](CC(N)=O)C(=O)N[C@@H](CC(C)C)C(=O)N[C@@H](CO)C(=O)N[C@@H]([C@@H](C)O)C(=O)N1)[C@@H](C)O)[C@@H](C)O)[C@@H](C)O)[C@@H](C)O)C(=O)NCC(=O)N[C@H](C(=O)NCC(=O)N[C@@H](C)C(=O)N1CCC[C@H]1C(N)=O)C(C)C [hCT]
Emax [1]: 69 ± 6%

Ki [2]: 14.5 nM
Ki [3]: 46.8 nM
EC50 ([4]; IP1, CV1-FlpIn cells, 60 min, LiCl): 3.72 nM
Emax ([4]; IP1 maximal response, SEM): 56 ± 7%
Compound: CSCC[C@H](NC(=O)CNC(=O)[C@H](CO)NC(=O)[C@H](Cc1ccccc1)NC(=O)[C@H](CCCNC(=N)N)NC(=O)[C@H](Cc1c[nH]cn1)NC(=O)[C@H](Cc1ccccc1)NC(=O)[C@H](CC(N)=O)NC(=O)[C@H](CC(N)=O)NC(=O)[C@H](CC(C)C)NC(=O)[C@H](CC(N)=O)NC(=O)[C@H](CCCNC(=N)N)NC(=O)[C@H](Cc1c[nH]c2ccccc12)NC(=O)[C@H](Cc1ccc(O)cc1)NC(=O)[C@H](C)NC(=O)[C@H](CO)NC(=O)[C@H](CC(C)C)NC(=O)[C@@H](NC(=O)[C@@H]1CSSC[C@H](N)C(=O)N[C@@H](CO)C(=O)N[C@@H](CC(N)=O)C(=O)N[C@@H](CC(C)C)C(=O)N[C@@H](CO)C(=O)N[C@@H]([C@@H](C)O)C(=O)N1)C(C)C)C(=O)NCC(=O)N[C@@H](Cc1ccccc1)C(=O)NCC(=O)N1CCC[C@H]1C(=O)N[C@@H](CCC(=O)O)C(=O)N[C@H](C(=O)N1CCC[C@H]1C(N)=O)[C@@H](C)O [pCT] (H-CSNLSTCVLSAYWRNLNNFHRFSGMGFGPETP-NH2; disulfide 1-7)

Compound: CC(C)C[C@H](NC(=O)[C@H](CCCCN)NC(=O)CNC(=O)[C@H](CC(C)C)NC(=O)[C@@H](NC(=O)[C@@H]1CSSC[C@H](N)C(=O)N[C@@H](CO)C(=O)N[C@@H](CC(N)=O)C(=O)N[C@@H](CC(C)C)C(=O)N[C@@H](CO)C(=O)N[C@@H]([C@@H](C)O)C(=O)N1)C(C)C)C(=O)N[C@@H](CO)C(=O)N[C@@H](CCC(N)=O)C(=O)N[C@@H](CCC(=O)O)C(=O)N[C@@H](CC(C)C)C(=O)N[C@@H](Cc1c[nH]cn1)C(=O)N[C@@H](CCCCN)C(=O)N[C@@H](CC(C)C)C(=O)N[C@@H](CCC(N)=O)C(=O)N[C@H](C(=O)N[C@@H](Cc1ccc(O)cc1)C(=O)N1CCC[C@H]1C(=O)N[C@@H](CCCNC(=N)N)C(=O)N[C@H](C(=O)N[C@@H](CC(N)=O)C(=O)N[C@H](C(=O)NCC(=O)N[C@@H](CO)C(=O)NCC(=O)N[C@H](C(=O)N1CCC[C@H]1C(N)=O)[C@@H](C)O)[C@@H](C)O)[C@@H](C)O)[C@@H](C)O [sCT]
Emax ([1]; F356A, IP1 maximal response, mean ± S.E.M.): 36 ± 3%

Source: paper PMC5908784, “Extracellular loops 2 and 3 of the calcitonin receptor selectively modify agonist binding and efficacy” (Biochemical Pharmacology, 2018)
